Data on 1 compound can be found in article PMC4809498, “Artonin E Induces Apoptosis via Mitochondrial Dysregulation in SKOV-3 Ovarian Cancer Cells” (PLoS ONE, 2016).

Assay [1] deals with SKOV-3 cells. Description: AO-PI double staining. Type of assay: cell-based, human. The note with it: SKOV-3, 8 μg/mL, 24, 48, 72 h. The protocol: The effect of artonin E in inducing cell death in SKOV-3 cells was determined using acridine orange (AO) and propidium iodide (PI) double staining. SKOV-3 cells were plated at 5×10^5cells in a T75cm^2 flask and incubated overnight to allow attachment. The cells were then exposed to 8 μg/mL of artonin E for 24, 48, and 72 h. After incubation, the treated cells were washed with PBS, and then trypsinized and centrifuged at 1,500 rpm for 5 min. The cells were then resuspended in cold PBS and centrifuged twice to obtain fresh clean pellets. The fresh pellets were mixed with an equal volume of fluorescent dye staining solution (1:1), comprising 10μg/mL AO and 10 μg/mL PI (dissolved in PBS). The freshly stained cell suspension was dropped onto a glass slide and observed under a UV–fluorescence microscope (Leica attached with Q-Flora Software) within 30 min, prior to fading of the fluorescence.

For assay [2], the system named is SKOV-3 cells. In words: Annexin V-FITC/PI flow cytometry. It counts as cell-based, human. Particulars: SKOV-3, 8 μg/mL. On the procedure:
An Annexin V assay was performed using a BD Pharmingen^TM Annexin V-FITC Apoptosis Detection Kit (ApoAlert Annexin V, Clontech, California, USA). The cells were placed in a 6-well plate and left overnight to attach. Cells were then treated with 8 μg/mL of artonin E for 24, 48, and 72h. The treated cells were trypsinized and centrifuged at 1,500 rpm for 10 min to remove residual media. Subsequently, 1X binding buffer was added to rinse the fresh pellets before their resuspension in 200 μL of binding buffer. The cells were then mixed with 5 μL of Annexin V and 10 μL of PI and incubated for 15 min in the dark at room temperature. The prepared cells were immediately analyzed using flow cytometric analysis (FACS Canto 11 Becton-Dickson). Then, 300 μL of binding buffer was added to each sample to adjust the reaction volume to at least 500 μL for the flow cytometric analysis. The cells treated with DMSO (0.1%, v/v) were used as control.

The subject of a further assay is caspase-9. Description: Western blot, caspase-9. Type of assay: cell-based, human. The note with it: SKOV-3, 8 μg/mL, as early as 24 h. On the procedure:
SKOV-3 cells were plated in a 75cm^2 culture flask and exposed to artonin E for 24, 48, and 72 h. Lysis buffer (50 mM Tris–HCl, pH 8.0; 120 mM NaCl, 0.5% NP-40; and 1 mM PMSF) was used to extract the total protein. Protein concentration was determined using a BCA protein assay reagent kit (Bio-Rad, USA). Equal amounts of protein (40 μg) extract were subjected to SDS-PAGE and electroblotted onto a polyvinylidenedifluoride membrane (Bio-Rad). Blots were then blocked with 5% non-fat milk in TBS-Tween buffer 7 (0.12 M Tris-base, 1.5 M NaCl, and 0.1% Tween 20) for 1 h at room temperature. After incubating with the appropriate primary antibody overnight at 4°C, the blots were washed and then incubated with horseradish peroxidase conjugated secondary antibody for 1 h at room temperature. The protein bands were detected using pico or femto chemiluminescence (ECL system) and visualized using a UV gel documentation system. The subsequent primary antibodies, which include those for β-actin (1:10,000), Bax (1:10,000), Bcl-2 (1:10,000), HSP-70 (1:10,000), survivin (1:10,000),caspase -3 (1:10,000), caspase -8 (1:10,000), caspase -9 (1;10,000) and cytochrome c (1:200) were purchased from Abcam, Cambridge, United Kingdom.

The test system of a further assay is caspase-3. Description: Colorimetric caspase-3 activation assay. Type of assay: cell-based, human. Particulars: SKOV-3, 8 μg/mL, 48 and 72 h treatment. The protocol:
Calorimetric assay of the activation of caspases-3, -8, and -9 was conducted using R & D system kit, USA. Briefly, in a T75cm^2 flask 90% confluent SKOV-3 cells were induced with artonin E for 24, 48, and 72 h. The induced cells were trypsinized and centrifuged at 1,800 rpm for 10 min. The fresh pellets were washed with cold PBS and immediately lysed with protein lysis buffer. The cell lysate was then kept on ice for 10 min, centrifuged at 10,000 g for 15 min, and transferred into a new tube. The fresh cell lysate (50 μL), which contained 100–200 μg of protein, was added into a 96-well plate in triplicate. Fifty microliters of reaction buffer and 5 μL of caspase were then transferred into each designated well before incubating the plate in a CO2 incubator at 37°C for 2 h. A microplate reader (Tecan Infinite M 200 PRO, Männedorf, Switzerland) was used for analysis at a wavelength of 405 nm.

The target in assay [3] is arachidonate 5-lipoxygenase. Set-up: method as in PMID 14559276. The note with it: read-out: IC50 value, arachidonate 5-lipoxygenase inhibition; cited from earlier work.
A further assay relates to CHO cells. Description: MTT cell viability assay, CHO. It counts as cell-based, Chinese hamster. The note with it: Cricetulus griseus, 24 h treatment. On the procedure: (§1) Metastatic ovarian adenocarcinoma (SKOV-3) and normal Chinese hamster ovary (CHO) cell lines were originally obtained from the American Type Culture Collection (ATCC; Manassas, VA). SKOV-3 cells were cultured in McCoy’s 5A medium and CHO cells were cultured in F12K medium. A human periodontal ligament fibroblast cell line was purchased from Lonza, USA and maintained in stroma cell basal medium. T1074 (normal immortalized human ovarian surface epithelial cell line) was originally purchased from Applied Biological Materials (abm®) Canada and cultured in Prigrow 1 medium.
(§2) The inhibitory effects of artonin E and two positive controls paclitaxel and carboplatin were examined by MTT assay. Cells at a density of 5×10^3cells/well were placed in a 96-well plate and left for 24 h to attach. The attached cells were exposed to artonin E, paclitaxel, and carboplatin at different concentrations and incubated for 24, 48, and 72 h. Subsequently, 20 μL of 5 mg/mL MTT solution was added after drug treatment and the resulting mixture was incubated for 4 h to form purple formazan. Afterward, 100 μL of dimethyl sulfoxide (DMSO) was transferred into each well to dissolve the purple formazan, and results were measured using a microplate reader (Tecan Infinite M 200 PRO, Männedorf, Switzerland) at an absorbance of 570 nm. […]

Assay [4] relates to SKOV-3 cells. In words: Clonogenic assay. Type of assay: cell-based, human. Particulars: three weeks incubation. On the procedure:
The SKOV-3 cells were trypsinized, centrifuged, and supplemented with fresh media. The cells were immediately counted and seeded (300 cells/plate) in a 60 mm Petridish, and left overnight to attach. The attached cells were treated with 0, 1, 5, 10, 15, and 20 μg/mL of artonin E for 24 h. Following incubation, the treated media were removed and fresh media were added. The cells were incubated for three weeks to form colonies. Surviving colonies were fixed with 90% ethanol and stained with crystal violet.

Assay [5] concerns Human periodontal ligament fibroblasts. In words: MTT cell viability assay, periodontal fibroblasts. It counts as cell-based. The note with it: Human periodontal fibroblast, 24 h treatment. The protocol: as §1, §2

SMILES strings stand for the structures. ≈ marks a conversion by molar mass, not a printed value.

With `CC(C)=CCc1c(-c2cc(O)c(O)cc2O)oc2c3c(cc(O)c2c1=O)OC(C)(C)C=C3` [Artonin E, artonin E], in the assay on SKOV-3 cells [1], the “induction of apoptosis (AO-PI scoring) vs untreated cells” value is recorded as “statistically significant (p<0.05) difference”. Further, the “cells at the early stage of apoptosis” value with SKOV-3 cells [2] (24 h post treatment) is given as “more than 40%”. In the assay with SKOV-3 cells [2] (48 h post treatment), the “cells at the late stage of apoptosis” value is recorded as “more than 40%”. Moreover, the “protein expression level of caspase-9” value in the assay with caspase-9 is “significantly (p<0.05) up-regulated”. Also, in the assay on caspase-3, the “activation of caspase-3” value is given as “significantly (p<0.05)elevated”. Also, the IC50 was 360 nM in assay [3], 57.6 ± 2 µg/mL (≈ 132 µM) with CHO cells and 67 ± 1 µg/mL (≈ 154 µM) in assay [5]. Also, the colony formation entry in the assay with SKOV-3 cells [4] (SKOV-3, 5 μg/mL for 24 h) is “almost half of the colonies were reduced”; with SKOV-3 cells [4] (SKOV-3, 10 μg/mL for 24 h), “decreasing sharply”; with SKOV-3 cells [4] (SKOV-3, 15 and 20 μg/mL for 24 h), “No colonies were formed”.
